Columns and labels:
[1] = target: T1, purified porcine dipeptidylpeptidase IV (Sus scrofa, UniProt P22411); experiment: DPP IV degradation studies of fatty acid derivatised GIP analogues; type: in vitro ADME
T1 construct: purchased Sigma (Poole, Dorset, UK)
Procedure: DPP IV degradation studies. GIP and fatty acid derivatised GIP analogues were incubated at 37° C. with purified porcine dipeptidylpeptidase IV (5 mU in 50 mmol/l triethanolamine-HCl; pH 7.8) for 0, 2, 4, 8 and 24 hours (final peptide concentration 2 mmol/l). The reactions were subsequently terminated by addition of 10% (v/v) TFA/water and the reaction products separated using HPLC. […] HPLC peak area data were used to calculate % intact peptide remaining throughout the incubation.

BRIN-BD11 cells = experiment: Insulin release from clonal pancreatic BRIN-BD11 cells (Example 6); type: cell-based; settings: 5.6 mmol/l glucose, 20 minutes incubation
Procedure: Cells and cell culture. Chinese hamster lung (CHL) fibroblasts stably transfected with the human GIP receptor (Gremlich, S. et al., 1995, Diabetes 44: 1202-1208) were cultured in DMEM tissue culture medium containing 10% (v/v) FBS, 1% (v/v) antibiotics (100 U/ml penicillin, 0.1 mg/ml streptomycin). Clonal pancreatic BRIN-BD11 cells (McClenaghan, N. H. et al., 1996, Diabetes 45: 1132-1140) were cultured using RPMI-1640 culture medium containing 10% (v/v) FBS, 1% (v/v) antibiotics (100 U/ml penicillin, 0.1 mg/ml streptomycin) and 11.1 mmol/l glucose. Cells were maintained at 37° C. in an atmosphere of 5% CO2 and 95% air using an LEEC incubator (Laboratory Technical Engineering, Nottingham, UK).
Insulin-release studies were carried out using clonal pancreatic BRIN-BD11 cells as described previously (O'Harte, F. P. M. et al., 2002, Diabetologia 45: 1281-1291). Briefly, BRIN-BD11 cells were seeded into 24-well plates at a density of 10^5 cells per well, and allowed to attach overnight at 37° C. Acute tests for insulin release were preceded by 40 minutes pre-incubation at 37° C. in 1.0 ml Krebs Ringer bicarbonate buffer supplemented with 1.1 mmol/l glucose. Test incubations were performed in the presence of 5.6 mmol/l glucose with a range of concentrations (10^−13 to 10^−6 mol/l) of GIP and GIP analogues. After 20 minutes incubation, the buffer was removed from each well and aliquots (200 μl) used for measurement of insulin.

ob/ob mice [2] = experiment: Acute metabolic and dose-response effects with glucose in 18 h fasted ob/ob mice; type: in vivo, mouse; settings: for overall glucose excursion (glucose AUC) compared to glucose alone: 25 nmoles/kg i.p. with glucose 18 mmoles/kg, 0-60 min; for AUC glucose and insulin in dose-response study: 6.25, 12.5 and 25 nmoles/kg with glucose
Procedure: (§1) Animals. Obese diabetic (ob/ob) mice derived from the colony maintained at Aston University, UK were used at 12-17 weeks of age. The genetic background and characteristics of the colony used have been outlined in detail elsewhere (Bailey, C. J. et al., 1982, Int. J. Obesity 6:11-21; Gault, V. A. et al., 2003, J. Endocrinol. 176: 133-141). Animals were housed in an air-conditioned room at 22±2° C. with a 12 hours light: 12 hours dark cycle. Drinking water and standard rodent maintenance diet (Trouw Nutrition, Cheshire, UK) were freely available. All test solutions were administered by i.p. injection in a final volume of 5 ml/kg bw. Blood was collected from the cut tip of the tail vein of conscious mice into chilled fluoride/heparin microcentrifuge tubes immediately prior to injection and at the times indicated in the Figures. Plasma was separated using a Beckman microcentrifuge (Beckman Instruments, UK) at 13,000 g for 30 second and stored at −20° C. prior to glucose and insulin determinations. All animal experiments were carried out in accordance with the UK Animals (Scientific Procedures) Act 1986.
(§2) Metabolic and dose-response effects of GIP and N-AcGIP(LysPAL) analogues (at 6.25-25 nmoles/kg bw) following glucose administration (18 mmoles/kg bw) were examined in mice fasted for 18 hours. […] Food intake and body weight were recorded daily. Plasma glucose and insulin concentrations were monitored at 2-6 day intervals. At 14 days, groups of animals were used to evaluate intraperitoneal glucose tolerance (18 mmoles/kg) and insulin sensitivity (50 U/kg). In a separate series, two experimental protocols were employed to examine the possibility of GIP receptor desensitization after 14 days treatment. […] At the end of the 14-day treatment period, pancreatic tissues were excised for measurement of insulin following extraction with 5 ml/g ice-cold acid ethanol (75% ethanol, […], 1.5% HCl). Whole blood was taken for determination of glycated hemoglobin.
(§3) Biochemical analyses. Plasma glucose was assayed by an automated glucose oxidase procedure (Stevens, J. F., 1971, Clin. Chem. Acta 32:199-201) using a Beckman Glucose Analyser II (Beckman, Galway, Ireland). Plasma insulin was determined by dextran-charcoal RIA as described previously (Flatt, P. R. et al., 1981, Diabetologia 20: 573-577). Glycated hemoglobin was determined using cation-exchange columns (Sigma, Poole, Dorset, UK) with measurement of absorbance (415 nm) in wash and eluting buffers using a VersaMax microplate spectrophotometer (Molecular Devices, Wokingham, Berkshire, UK).
(§4) Statistics. Results are expressed as mean±SEM. Data were compared using the unpaired Student's t-test. Where appropriate, data were compared using repeated measures ANOVA or one-way ANOVA, followed by the Student-Newman-Keuls post hoc test. Incremental areas under plasma glucose and insulin curves (AUC) were calculated using a computer-generated program employing the trapezoidal rule (Burington, R. S., 1973, Handbook of Mathematical Tables and Formulae, McGraw-Hill, New York) with baseline subtraction.

ob/ob mice [3] = experiment: Once daily i.p. injection for 14 days in ob/ob mice; type: in vivo, mouse; settings: for body weight / food intake / non-fasting plasma insulin: 14 days; for plasma insulin response to glucose (AUC) / glucose tolerance: after 14 daily injections; for glucose tolerance: i.p. glucose 18 mmoles/kg; for insulin sensitivity: after 14 days, insulin 50 U/kg i.p.
Procedure: as §1, §2, §3, §4

T1 sequence (P22411 whole entry): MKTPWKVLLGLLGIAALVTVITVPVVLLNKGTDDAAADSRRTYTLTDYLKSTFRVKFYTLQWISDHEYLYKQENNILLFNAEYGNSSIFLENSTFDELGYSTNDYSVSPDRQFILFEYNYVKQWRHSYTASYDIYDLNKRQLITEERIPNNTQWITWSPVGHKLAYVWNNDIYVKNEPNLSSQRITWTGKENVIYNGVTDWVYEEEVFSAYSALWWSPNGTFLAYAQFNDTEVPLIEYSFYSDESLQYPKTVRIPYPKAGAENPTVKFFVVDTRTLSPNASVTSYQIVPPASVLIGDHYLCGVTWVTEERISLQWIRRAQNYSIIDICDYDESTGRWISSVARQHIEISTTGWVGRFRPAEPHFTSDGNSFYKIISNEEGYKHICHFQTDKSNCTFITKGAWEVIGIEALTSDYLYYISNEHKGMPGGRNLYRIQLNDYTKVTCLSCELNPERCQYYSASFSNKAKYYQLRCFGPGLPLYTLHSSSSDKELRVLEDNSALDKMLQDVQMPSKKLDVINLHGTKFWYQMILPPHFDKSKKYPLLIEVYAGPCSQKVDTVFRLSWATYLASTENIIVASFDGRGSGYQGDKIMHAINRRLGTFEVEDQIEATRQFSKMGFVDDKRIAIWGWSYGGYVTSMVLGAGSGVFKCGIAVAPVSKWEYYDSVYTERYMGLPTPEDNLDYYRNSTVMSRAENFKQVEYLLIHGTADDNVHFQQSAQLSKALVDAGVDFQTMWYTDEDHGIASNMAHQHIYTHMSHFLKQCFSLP

With CC[C@H](C)[C@H](NC(=O)[C@H](CO)NC(=O)[C@H](Cc1ccc(O)cc1)NC(=O)[C@H](CC(=O)O)NC(=O)[C@H](CO)NC(=O)[C@@H](NC(=O)[C@H](Cc1ccccc1)NC(=O)[C@@H](NC(=O)CNC(=O)[C@H](CCC(=O)O)NC(=O)[C@H](C)NC(=O)[C@@H](N)Cc1ccc(O)cc1)[C@@H](C)O)[C@@H](C)CC)C(=O)N[C@@H](C)C(=O)N[C@@H](CCSC)C(=O)N[C@@H](CC(=O)O)C(=O)N[C@@H](CCCCN)C(=O)N[C@H](C(=O)N[C@@H](Cc1c[nH]cn1)C(=O)N[C@@H](CCC(N)=O)C(=O)N[C@@H](CCC(N)=O)C(=O)N[C@@H](CC(=O)O)C(=O)N[C@@H](Cc1ccccc1)C(=O)N[C@H](C(=O)N[C@@H](CC(N)=O)C(=O)N[C@@H](Cc1c[nH]c2ccccc12)C(=O)N[C@@H](CC(C)C)C(=O)N[C@@H](CC(C)C)C(=O)N[C@@H](C)C(=O)N[C@@H](CCC(N)=O)C(=O)N[C@@H](CCCCN)C(=O)NCC(=O)N[C@@H](CCCCN)C(=O)N[C@@H](CCCCN)C(=O)N[C@@H](CC(N)=O)C(=O)N[C@@H](CC(=O)O)C(=O)N[C@@H](Cc1c[nH]c2ccccc12)C(=O)N[C@@H](CCCCN)C(=O)N[C@@H](Cc1c[nH]cn1)C(=O)N[C@@H](CC(N)=O)C(=O)N[C@H](C(=O)N[C@H](C(=O)N[C@@H](CCC(N)=O)C(=O)O)[C@@H](C)O)[C@@H](C)CC)C(C)C)[C@@H](C)CC [GIP 1–42, reference compound] the “% Intact peptide remaining after time (hours)” value (“% Intact peptide remaining” below) ([1]; pig, 0 h) was 100%, the “% Intact peptide remaining” value ([1]; pig, 2 h) was 52±3% and the “% Intact peptide remaining” value ([1]; pig, 8 h) was “entirely degraded”. For the same compound, the “insulin secretion compared to control” value (BRIN-BD11 cells) was “dose-dependently stimulated insulin secretion”, the “overall insulinotropic response compared with glucose alone” value (ob/ob mice [2]; 25 nmoles/kg i.p. with glucose) was “significantly elevated the overall insulinotropic response” and the “overall glucose excursion (glucose AUC) compared to glucose alone” value (ob/ob mice [2]) was “failed to reach significance”. For the same compound, the “AUC glucose and insulin in dose-response study” value (ob/ob mice [2]) was “did not significantly affect”, the body weight (ob/ob mice [3]; 12.5 nmoles/kg/day) was “no effect” and the food intake (ob/ob mice [3]; 12.5 nmoles/kg/day) was “no effect”. The non-fasting plasma insulin (ob/ob mice [3]; 12.5 nmoles/kg/day) was “unchanged”, the non-fasting plasma glucose (ob/ob mice [3]; 12.5 nmoles/kg/day, at 14 days) was “unchanged” and the pancreatic weight (ob/ob mice [3]; 14 days treatment) was “did not affect pancreatic weight”. The “plasma insulin response to glucose (AUC)” value (ob/ob mice [3]) was “had no effect”, the glucose tolerance (ob/ob mice [3]) was “had no effect” and the insulin sensitivity (ob/ob mice [3]) was “did not affect the characteristic insulin resistance”.

In the case of CCCCCCCCCCCCCCCC(=O)NCCCC[C@H](NC(=O)[C@H](Cc1c[nH]c2ccccc12)NC(=O)[C@H](CC(=O)O)NC(=O)[C@H](CC(N)=O)NC(=O)[C@H](CCCCN)NC(=O)[C@H](CCCCN)NC(=O)CNC(=O)[C@H](CCCCN)NC(=O)[C@H](CCC(N)=O)NC(=O)[C@H](C)NC(=O)[C@H](CC(C)C)NC(=O)[C@H](CC(C)C)NC(=O)[C@H](Cc1c[nH]c2ccccc12)NC(=O)[C@H](CC(N)=O)NC(=O)[C@@H](NC(=O)[C@H](Cc1ccccc1)NC(=O)[C@H](CC(=O)O)NC(=O)[C@H](CCC(N)=O)NC(=O)[C@H](CCC(N)=O)NC(=O)[C@H](Cc1c[nH]cn1)NC(=O)[C@@H](NC(=O)[C@H](CCCCN)NC(=O)[C@H](CC(=O)O)NC(=O)[C@H](CCSC)NC(=O)[C@H](C)NC(=O)[C@@H](NC(=O)[C@H](CO)NC(=O)[C@H](Cc1ccc(O)cc1)NC(=O)[C@H](CC(=O)O)NC(=O)[C@H](CO)NC(=O)[C@@H](NC(=O)[C@H](Cc1ccccc1)NC(=O)[C@@H](NC(=O)CNC(=O)[C@H](CCC(=O)O)NC(=O)[C@H](C)NC(=O)[C@H](Cc1ccc(O)cc1)NC(C)=O)[C@@H](C)O)[C@@H](C)CC)[C@@H](C)CC)[C@@H](C)CC)C(C)C)C(=O)N[C@@H](Cc1c[nH]cn1)C(=O)N[C@@H](CC(N)=O)C(=O)N[C@H](C(=O)N[C@H](C(=O)N[C@@H](CCC(N)=O)C(=O)O)[C@@H](C)O)[C@@H](C)CC [N-AcGIP(LysPAL^37)], the “% Intact peptide remaining” value ([1]; incubation with DPP IV, 0 h) is reported as 100%, the “% Intact peptide remaining” value ([1]; incubation with DPP IV, 24 h) is reported as “remained completely intact” and the “insulin secretion compared to control” value (BRIN-BD11 cells) is reported as “significantly stimulated glucose-induced insulin secretion”. For the same compound, the “antihyperglycaemic effect compared to glucose alone” value (ob/ob mice [2]; 6.25 nmoles/kg with glucose) was “highly significant antihyperglycaemic properties”, the “insulin response (AUC) compared to glucose alone” value (ob/ob mice [2]; 6.25 nmoles/kg with glucose) was 2.0 fold and the “enhancement of overall glucose-mediated insulin release (AUC) compared to native GIP” value (ob/ob mice [2]; 25 nmoles/kg i.p. with glucose) was 2.3 fold. For the same compound, the “overall glucose excursion compared to native GIP” value (ob/ob mice [2]; 25 nmoles/kg i.p. with glucose) was “decreased the overall glucose excursion”, the “potency at stimulating insulin secretion relative to N-AcGIP(LysPAL^16)” value (ob/ob mice [2]; 25 nmoles/kg i.p. with glucose) was 1.5 fold and the “overall glucose excursion (glucose AUC) compared to glucose alone” value (ob/ob mice [2]) was “significantly lowered glucose AUC”. The “AUC glucose and insulin in dose-response study” value (ob/ob mice [2]) was “prominent dose-dependent antihyperglycaemic and insulinotropic actions at all doses administered”, the body weight (ob/ob mice [3]; 12.5 nmoles/kg/day) was “no effect” and the food intake (ob/ob mice [3]; 12.5 nmoles/kg/day) was “no effect”. For the same compound, the non-fasting plasma insulin (ob/ob mice [3]; 12.5 nmoles/kg/day) was “tendency towards elevated insulin concentrations”, the glycated hemoglobin (ob/ob mice [3]; 12.5 nmoles/kg/day, at 14 days) was “significantly (p<0.01) decreased” and the non-fasting plasma glucose (ob/ob mice [3]; 12.5 nmoles/kg/day, at 14 days) was “significantly (p<0.05) lowered”. The pancreatic insulin content (ob/ob mice [3]; 14 days treatment) was “significantly increased”, the pancreatic weight (ob/ob mice [3]; 14 days treatment) was “did not affect pancreatic weight” and the GIP receptor desensitization (ob/ob mice [3]; acute 25 nmoles/kg with glucose after 14 days treatment) was “lack of GIP receptor desensitization”. The “plasma insulin response to glucose (AUC)” value (ob/ob mice [3]) was “greater (p<0.01) overall AUC insulin response”, the glucose tolerance (ob/ob mice [3]) was “significant improvement in glucose tolerance” and the insulin sensitivity (ob/ob mice [3]) was “significant improvement of insulin sensitivity”.

From US7875587B2, “Peptide analogues of GIP for treatment of diabetes, insulin resistance and obesity” (UUTECH Limited, priority 2004, dated 2011)
